# Measurements: patent US20250152616A1, “COMPOSITIONS FOR AND METHODS OF TREATING, PREVENTING, AND/OR MITIGATING PAIN” (Duke University, priority 2022, published 2025)
# Tests used:
# fractured tibiae = experiment: MicroCT of fractured tibiae (fracture healing); type: in vivo, mouse; conditions: 21 days post-fracture
# Description: In all experiments, 12-week-old to 16-week-old C57BL/6J male mice (Jackson Laboratory, Bar Harbor, ME) and Lepr-cre; tdTomato reporter mice were used. The average mouse weight was 25 grams and mice were housed in groups of four to five, and kept on a 12-hr light-dark cycle with lights off at 1800 hr. All animals had ad libitum access to chow (PMI LabDiet 5001) and water. Fracture surgeries were performed as previously described (Zeng Y, et al. (2020) Adv Mater. 32:e1906022). Animals were anesthetized by isoflurane and injected with 1 mg/kg buprenorphine SR-LAB (ZooPharm, Laramie, WY). Each mouse was then placed in a supine position with the right tibia disinfected. After skin incision and reflection, proximal to the right knee, a 0.7-mm pin was inserted from the tibial plateau through the medullary cavity to stabilize the tibia, and a cut was made at the tibial midshaft to induce a transverse fracture. Bupivacaine (0.5%; Hospira, Lake Forest, IL) at ˜1 mg/kg body weight was applied at the surgical site following wound closure using 2 reflex clips (5 mm). For animals treated with control and adenosine-loaded macroporous hydrogels, macroporous hydrogels measuring approximately 5 mm (length)×3 mm (width)×1 mm (thick) containing either 1.05±0.1 mg adenosine (ADO) or no adenosine (CTL) were implanted adjacent to the fractures immediately. […] The animals were treated with the macroporous hydrogels with or without adenosine immediately following the fracture. In the cohorts for weight bearing and open field activity measurements, 1 animal from the control group and 1 animal from the treatment group were euthanized due to shift of the inserted pin following fracture.
# Tibiae were collected, fixed in 4% PFA at 4° C. for 1 day, and rinsed with PBS. The fixed samples were placed in 50-mL centrifuge tubes with styrofoam spacers and loaded into a microcomputed tomography (microCT) scanner (vivaCT 80, Scanco Medical, Wayne, PA). The samples were scanned at 55 keV at a pixel resolution of 10.4 μm. The reconstruction of the images was performed using microCT Evaluation Program V6.6 (Scanco Medical), followed by generation of radiographs and 3D models using microCT Ray V4.0 (Scanco Medical). Total volume (TV), bone volume (BV) per total volume (TV) (% BV/TV), and bone mineral density (BMD) was quantified using the phantom as a reference based on 100 contiguous slices.
# [1] = Measurement of adenosine in plasma of fractured mice; type: in vivo, mouse; conditions: 3 days after implantation of adenosine-loaded biomaterial following tibial fracture
# Description: Peripheral blood was collected and immediately incubated in ice cold stop solution at a 1:2 ratio (blood to stop solution) to inhibit degradation of adenosine (Feldman M D, et al. (1992) Clin Chem. 38:256-262). Stop solution comprised of 0.2 mM dipyridamole (Tocris, Minneapolis, MN), 5 μM erythro-9 (2-hydroxy-3-nonyl)-adenine (EHNA; Tocris), 62 μM Adenosine 5′-(α,β-methylene) diphosphate sodium salt (APCP), 5 mM EDTA, and 25 IU/mL heparin (Tocris) in PBS. The blood was centrifuged at 2000 rcf for 10 min at 4° C. to separate cells from plasma. Adenosine assay kit (Cell Biolabs, San Diego, CA, Cat #MET-5090) was used to measure adenosine levels from plasma according to manufacturer's protocol. Briefly, a reaction mixture comprised of fluorometric Probe, HRP, adenosine deaminase, purine nucleoside phosphorylase, xanthine oxidase, assay buffer and a control mix comprised of fluorometric Probe, HRP, purine nucleoside phosphorylase, xanthine oxidase, assay buffer were made and mixed with 50 μL of plasma for 15 min. at room temp. The relative fluorescence unit (RFU) was measured using a microplate reader with excitation at 570 nm and emission at 590 nm. Adenosine concentration was determined using a standard curve of known concentrations and subtracted for the background by using the values in control mix.
structure (smiles),measurement,setting,value
Nc1ncnc2c1ncn2[C@@H]1O[C@H](CO)[C@@H](O)[C@H]1O [adenosine],callus size (microCT),fractured tibiae,smaller calluses
same,cortical bone bridging (microCT),fractured tibiae,improved bridging of cortical bone with less trabecular bone
same,total volume (TV) of regenerating calluses vs control,fractured tibiae,lower
same,fracture healing (microCT images and radiographs),fractured tibiae; local delivery,accelerated
same,adenosine level in peripheral blood vs control biomaterials,[1],No significant increase
